Data set [1] in a line: Inhibition of lipid A-mediated TLR4 activation in HEK-Blue-4 cells assessed as inhibition of alkaline phosphatase activity by spectrophotometry. The class given is cell-based.
Data set [2] in a line: Cytotoxicity against HEK-Blue-4 cells assessed as effect on cell viability by Cell-Titre Blue assay. The conditions noted are these: human. It counts as cell-based.
A short description of data set [3]: Inhibition of lipid A-induced TLR4 activation in HEK-Blue-4 cells assessed as inhibition of alkaline phosphatase activity at 10 uM by spectrophotometry. It counts as cell-based.
Data set [4] concerns the target Intestinal-type alkaline phosphatase (Bos taurus) (UniProt P19111). The data set is described as follows: Inhibition of calf recombinant intestinal alkaline phosphatase at 10 uM.
The subject of data set [5] is Mus musculus. Put plainly: Antisepsis activity in LPS-induced ip dosed C57BL/6J mouse lethal endotoxin shock model assessed as survival after 4 days administered 30 before LPS challenge. It counts as functional.
The test system of data set [6] is Mus musculus. The data set is described as follows: Antisepsis activity in LPS-induced C57BL/6J mouse lethal endotoxin shock model assessed as survival after 4 days at 10 mg/kg, ip administered 30 before LPS challenge. The class given is functional. The conditions noted are these: for survival at 10 mg/kg: 96 h, route intraperitoneal.
The target of data set [7] is Intestinal-type alkaline phosphatase (Homo sapiens) (UniProt P09923). The data set is described as follows: Inhibition of intestinal alkaline phosphatase in lipid A-stimulated HEK-Blue-4 cells at 10 uM.
Intestinal-type alkaline phosphatase (Homo sapiens), sequence (P09923 20-503 limits assumed): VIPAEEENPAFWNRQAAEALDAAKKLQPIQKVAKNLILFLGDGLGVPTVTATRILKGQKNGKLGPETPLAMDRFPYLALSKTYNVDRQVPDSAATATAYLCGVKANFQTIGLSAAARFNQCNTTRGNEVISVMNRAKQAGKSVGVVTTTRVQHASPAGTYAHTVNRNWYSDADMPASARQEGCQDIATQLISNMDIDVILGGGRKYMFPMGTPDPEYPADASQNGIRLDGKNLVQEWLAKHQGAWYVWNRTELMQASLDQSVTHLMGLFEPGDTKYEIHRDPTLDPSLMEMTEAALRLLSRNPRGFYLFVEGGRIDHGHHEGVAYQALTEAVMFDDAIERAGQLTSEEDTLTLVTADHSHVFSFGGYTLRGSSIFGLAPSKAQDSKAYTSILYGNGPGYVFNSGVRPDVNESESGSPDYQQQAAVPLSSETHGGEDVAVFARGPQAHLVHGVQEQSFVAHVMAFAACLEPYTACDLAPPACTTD
The species entered for data set [8] is Homo sapiens. The data set is described as follows: Inhibition of TNF-alpha-induced alkaline phosphatase activity in HEK-Blue-4 cells at 10 uM by spectrophotometry. It counts as functional, cell-based.
Data set [9] is described as follows: Cytotoxicity against HEK-Blue-4 cells assessed as diminution of cell viability by Cell-Titre Blue assay. It counts as cell-based. The following applies: human.
In data set [10] the test system is Mus musculus. The data set is described as follows: Antisepsis activity in LPS-induced C57BL/6J mouse lethal endotoxin shock model assessed as survival after 4 days at 3 mg/kg, ip administered 30 before LPS challenge. The following applies: 96 h, route intraperitoneal. The class given is functional.

Activity calls are given as the source filed them. The rule behind the calls is not given here.

Intestinal-type alkaline phosphatase (Bos taurus), sequence (P19111 20-506 limits assumed): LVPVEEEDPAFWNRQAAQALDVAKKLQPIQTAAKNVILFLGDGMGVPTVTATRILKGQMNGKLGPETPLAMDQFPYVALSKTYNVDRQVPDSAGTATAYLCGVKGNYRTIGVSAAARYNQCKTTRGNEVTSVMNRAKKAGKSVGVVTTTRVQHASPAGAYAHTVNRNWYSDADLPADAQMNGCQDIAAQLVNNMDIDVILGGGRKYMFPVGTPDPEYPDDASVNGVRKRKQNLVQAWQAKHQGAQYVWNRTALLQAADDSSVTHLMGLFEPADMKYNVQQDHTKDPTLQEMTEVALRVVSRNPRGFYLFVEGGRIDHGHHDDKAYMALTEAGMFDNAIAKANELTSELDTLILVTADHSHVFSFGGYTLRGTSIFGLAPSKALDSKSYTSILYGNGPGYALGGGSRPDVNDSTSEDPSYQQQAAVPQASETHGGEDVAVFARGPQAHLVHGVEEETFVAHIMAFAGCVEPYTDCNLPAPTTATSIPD

As to `CCCCCCCCCCCCCCO[C@H]1[C@@H](OC)O[C@H](COC2CCCC2)[C@@H](O)[C@@H]1OCCCCCCCCCCCCCC`, in data set [1], the IC50 (in general, the point on the concentration scale where inhibition reaches its midpoint) was greater than 10 µM.
With `CCCCCCCCCCCCCCO[C@H]1[C@@H](OC)O[C@H](CNC(=O)C2CCCN2)[C@@H](O)[C@@H]1OCCCCCCCCCCCCCC` (some centres not stated), the Activity entry in data set [2] is “Non-toxic”; in data set [3], “Dose-dependent effect”. The IC50 in data set [1] was found to be 5.87 µM. The outcome in [4] was inactive.
`CCOC(=O)C1=CCCC[C@H]1S(=O)(=O)Nc1ccc(F)cc1Cl` [RESATORVID]: in [5] (96 h), the ED50 (in general, the dose at which the effect has come halfway, by size or by number of responders) is 0.3 mg/kg.
Turning to `CCCCCCCCCCCCCCOc1ccc(C[N+](C)(C)C2CCCC2)cc1OCCCCCCCCCCCCCC.[I-]`, the survival at 10 mg/kg in [6] is 67%. Moreover, the result in data set [7], in data set [8] and in data set [4] was inactive. In addition, the IC50 in [1] is 1.68 µM. The Activity result in [3] was “Dose-dependent effect”; in [9], 13%.
Regarding `CCCCCCCCCCCCCCO[C@H]1[C@@H](OC)O[C@H](CNC2CCCC2)[C@@H](O)[C@@H]1OCCCCCCCCCCCCCC`, the result in data set [5] was inactive. In data set [1], the half-inhibitory concentration (IC50) is greater than 10 µM. Further, the inhibition (in general, the drop in the measured response relative to a control, in per cent) in [3] was 23%.
In the case of `CCCCCCCCCCCCCCO[C@H]1[C@@H](OC)O[C@H](CN)[C@@H](O)[C@@H]1OCCCCCCCCCCCCCC`, the Activity result in [2] was “Non-toxic”; in data set [3], “Dose-dependent effect”. For the same compound, in data set [6], the result was Active. In addition, the outcome in data set [7], in data set [8] and in data set [4] was inactive. For the same compound, the concentration for half-maximal inhibition (IC50) in data set [1] is 5.49 µM. For the same compound, in data set [10], the survival at 3 mg/kg is 100%.
In the case of `CCCCCCCCCCCCCCO[C@H]1[C@@H](OC)O[C@H](C[N+](C)(C)C2CCCC2)[C@@H](O)[C@@H]1OCCCCCCCCCCCCCC.[I-]`, the Activity entry in data set [2] is “Non-toxic”; in data set [3] it was “Dose-dependent effect”. The survival at 10 mg/kg in [6] stood at 25%. In addition, the outcome in data set [7], in [8] and in [4] was inactive. Also, the IC50 in [1] turned out to be 5.01 µM.
In the case of `CCCCCCCCCCCCCCO[C@H]1[C@@H](OC)O[C@H](CNOC)[C@@H](O)[C@@H]1OCCCCCCCCCCCCCC`, the concentration for half-maximal inhibition (IC50) in [1] is greater than 10 µM.
